Test results taken from patent publication US20250296960A1, “PEPTIDE COMPOSITIONS AND METHODS OF USE THEREOF” (priority 2022, published 2025).
Where two headings read alike, the source gives them in different places. Numbered stars: 1 amine (or outer) side, 2 acyl side, 3 side chain; on linkers, the order of the positions; unused ones are H or OH. Square brackets hold non-standard residues; d marks the D form. Side chains are listed from the residue outwards. Peptide text beside a SMILES is read from it. * marks the point of attachment. Biotin = O=C1N[C@H]2[C@H](CS[C@H]2CCCCC(=O)*)N1; C18 diacid = O=C(O)CCCCCCCCCCCCCCCCC(=O)*; γGlu = O=C(O)[C@H](CCC(=O)[*:2])N[*:1]; AEEA = NCCOCCOCC(=O)O; Aib = CC(C)(N)C(=O)O

Legend:
[1] = assay type: in vitro ADME; conditions: pH 7.8
Experimental: For the stability against trypsin, the test samples were prepared by mixing stock solutions of peptide and trypsin dissolved in 50 mM PBS (pH 7.8) containing 0.02% PS80 in a weight ratio of 10:1. The test samples were incubated at 37° C. for 180 min. The sampling from test samples was proceeded at the predetermined time points (10, 30, 60, 90, 120, and 180 min) and stopped by 10% TFA solution.
(§1) Analytical HPLC was performed to determine the remaining amount on an ACQUITY Premier system (Waters, USA) with an ACQUITY CSH C18 column (Waters, USA) at 35° C. using 0.1% TFA in water and acetonitrile. The remaining amount was determined as a percentage of the peak area at the sampling time point relative to the peak area of the initial sample.

[2] = rat, in vivo, iv
Experimental: This study was conducted to evaluate the PK profile of SEQ ID NOs. 77, 102, and 103 and compare the PK profile by the different lipidated structure of peptides in rat plasma by IV administration. SEQ ID NOs. The peptides were delivered at 0.02% PS80 in PBS and dosing volume was 2.5 mL/kg.
The animals were not fasted prior to dosing. 0.2-0.4 mL of whole blood was taken from vein at each time point (0.167, 0.5, 1, 2, 4, 6, 8, 24, and 48 hr after administration) and transferred into the heparin coated tube.
The resulting plasma of 0.1-0.2 mL obtained by centrifugation of the blood samples was transferred into the tube and stored at −70° C. until analysis. The concentrations of peptides in plasma were determined by LC-MS/MS analysis.

[3] = In vitro enzymatic stability against FaSSIF/P (pancreatin in FaSSIF, pH 6.5); assay type: in vitro ADME; conditions: simulated gi fluid, pH 6.5, Half-life (min)
Experimental: This study was conducted to determine the enzymatic stability of SEQ ID NOs. 77, 86, 87, 89, 90, and 91 after biotinylation in artificial intestinal environment. The test samples were prepared by mixing stock solutions of peptide and pancreatin dissolved in FaSSIF solution (pH 6.5) in a weight ratio of 25:1. The test samples were incubated at 37° C. for 120 min. The sampling from test samples was proceeded at the predetermined time points (10, 30, 60, and 120 min) and stopped by 10% TFA solution.
as §1
For the stability against FaSSIF/P, the test samples were prepared by mixing stock solutions of peptide and pancreatin dissolved in FaSSIF solution (pH 6.5) in a weight ratio of 19:1. The test samples were incubated at 37° C. for 120 min. The sampling from test samples was proceeded at the predetermined time points (10, 30, 60, and 120 min) and stopped by 10% TFA solution.

human GIPR = biological target: T1, human GIPR (Homo sapiens, UniProt P48546); experiment: cAMP assay (HitHunter cAMP) in GIPR-expressing CHO-K1 cells (GIPR+ cells); assay type: cell-based; conditions: Table 31
T1 construct: host or cells: CHO-K1
T1 sequence (P48546 22-466): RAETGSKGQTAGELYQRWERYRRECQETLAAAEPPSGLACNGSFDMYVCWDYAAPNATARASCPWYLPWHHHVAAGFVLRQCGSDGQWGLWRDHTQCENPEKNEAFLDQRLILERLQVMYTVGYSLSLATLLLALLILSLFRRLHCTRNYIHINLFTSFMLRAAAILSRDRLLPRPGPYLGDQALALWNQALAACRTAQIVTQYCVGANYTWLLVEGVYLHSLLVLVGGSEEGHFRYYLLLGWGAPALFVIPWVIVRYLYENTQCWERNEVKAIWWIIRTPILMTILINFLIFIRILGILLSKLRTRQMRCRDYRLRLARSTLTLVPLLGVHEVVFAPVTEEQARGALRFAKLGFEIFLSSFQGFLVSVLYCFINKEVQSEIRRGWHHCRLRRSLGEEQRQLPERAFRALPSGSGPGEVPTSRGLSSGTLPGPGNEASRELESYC
Method in brief: (§2)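 CHO-K1 cells expressing each receptor were plated overnight, then treated with peptide in cAMP assay buffer for 30 min at 37 °C. cAMP was detected by antibody plus detection solution (1 h) and Solution A (3 h), both at room temperature in the dark. Luminescence was the read-out.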

human GCGR = biological target: T2, human GCGR (Homo sapiens, UniProt P47871); experiment: cAMP assay (HitHunter cAMP) in GCGR-expressing CHO-K1 cells (GCGR+ cells); assay type: cell-based; conditions: Table 31
T2 construct: host or cells: CHO-K1
T2 sequence (P47871 26-477): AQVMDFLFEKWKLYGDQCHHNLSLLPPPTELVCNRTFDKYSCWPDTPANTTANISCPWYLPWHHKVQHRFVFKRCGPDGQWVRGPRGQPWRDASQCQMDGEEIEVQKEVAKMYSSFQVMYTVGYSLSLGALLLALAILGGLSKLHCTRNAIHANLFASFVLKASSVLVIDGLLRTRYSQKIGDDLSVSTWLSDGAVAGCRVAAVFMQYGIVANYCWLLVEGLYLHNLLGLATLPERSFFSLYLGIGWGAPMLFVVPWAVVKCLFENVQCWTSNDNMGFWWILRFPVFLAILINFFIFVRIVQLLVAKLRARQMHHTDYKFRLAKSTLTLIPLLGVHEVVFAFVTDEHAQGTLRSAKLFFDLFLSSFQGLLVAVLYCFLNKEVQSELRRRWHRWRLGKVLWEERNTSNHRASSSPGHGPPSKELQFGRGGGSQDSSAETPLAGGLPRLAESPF
Method in brief: as §2

[4] = Body weight loss in high fat diet (HFD) mice, 2 weeks; assay type: in vivo; conditions: 20 nmol/kg s.c. Q2D
Experimental: This study was conducted to confirm the body weight loss effect and select the peptides to be evaluated in high fat diet (HFD) treated mouse, which is widely used as experimental animal model in obesity and diabetes studies. SEQ ID NOs. The peptides were delivered at 0.02% PS80 in PBS and dosing volume was 10 mL/kg. Body weight changes, blood glucose, and food intake were monitored Q2D. Animals were fasted at least 4 hours prior to blood glucose measurement.

human GLP-1R = biological target: T3, human GLP-1R (Homo sapiens, UniProt P43220); experiment: cAMP assay (HitHunter cAMP) in GLP-1R-expressing CHO-K1 cells (GLP-1R+ cells); assay type: cell-based; conditions: Table 31
T3 construct: host or cells: CHO-K1
T3 sequence (P43220 24-463): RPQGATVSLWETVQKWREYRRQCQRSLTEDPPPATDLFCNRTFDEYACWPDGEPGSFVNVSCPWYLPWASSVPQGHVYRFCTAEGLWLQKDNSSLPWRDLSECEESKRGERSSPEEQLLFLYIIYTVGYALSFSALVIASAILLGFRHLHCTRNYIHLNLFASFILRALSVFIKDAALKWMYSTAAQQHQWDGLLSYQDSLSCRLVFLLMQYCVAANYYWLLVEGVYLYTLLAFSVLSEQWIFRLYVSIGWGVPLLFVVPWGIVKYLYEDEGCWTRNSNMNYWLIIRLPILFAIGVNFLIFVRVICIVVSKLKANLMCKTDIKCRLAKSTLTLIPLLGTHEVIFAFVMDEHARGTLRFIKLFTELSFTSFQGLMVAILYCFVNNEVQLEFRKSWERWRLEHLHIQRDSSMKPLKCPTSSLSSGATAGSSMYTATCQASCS
Method in brief: as §2

[5] = Intestinal absorption / PK after intraduodenal administration of oral formulation in rats, serum LC-MS/MS; conditions: rat, in vivo
Experimental: This study was conducted to evaluate the intestinal absorption of peptides following enteral administration of oral pharmaceutical formulations. The pharmaceutical formulation was administered in a form of suspensions by intraduodenal (ID) injection in rats. SEQ ID_87, 89 and 90 was accurately weighed and dissolved in 10 mM PBS containing polysorbate 80 (pH 7.4, vehicle I). The mixture was vortexed for 5 min to get a clear solution. Then, 2.5 mL of vehicle was added to the mixture and vortexed for 30 min to get homogenous opaque suspension. The composition of Vehicle II was sodium chenodeoxycholate, and propyl gallate in polysorbate 80 in PBS. The animals were not fasted prior to dosing. 0.2˜ 0.4 mL of whole blood was taken from vein at each time point (0, 0.167, 0.5, 1, 2, 4, 8, 24, and 48 hrs after IV or ID administration). The collected whole blood was incubated at room temperature for 20 min and tubes were centrifugated at 13,000 rpm for 10 min at 4° C. The resulting serum 0.1˜ 0.2 mL was transferred into the tube and stored at −70° C. until analysis. The concentrations of peptides in serum were determined by LC-MS/MS analysis. PK parameters were analyzed by non-compartmental analysis using Phoenix WinNonlin 5.0.1. software (Pharsight Corporation, Mountain View, CA, USA).

For `CC[C@H](C)[C@H](NC(=O)[C@H](CC(C)C)NC(=O)[C@H](Cc1c[nH]c2ccccc12)NC(=O)[C@H](CC(C)C)NC(=O)[C@@H](NC(=O)[C@H](Cc1ccccc1)NC(=O)[C@H](CC(=O)O)NC(=O)CNC(=O)[C@H](C)NC(=O)[C@H](Cc1c[nH]c2ccccc12)NC(=O)[C@@H]1CCCN1C(=O)CNC(=O)[C@H](CC(=O)O)NC(=O)[C@H](CC(C)C)NC(=O)[C@H](Cc1ccc(O)cc1)NC(=O)[C@H](Cc1c[nH]c2ccccc12)NC(=O)[C@H](CO)NC(=O)[C@H](CCCCN)NC(=O)[C@H](CC(=O)O)NC(=O)[C@H](CO)NC(=O)[C@@H](NC(=O)[C@H](Cc1ccccc1)NC(=O)[C@@H](NC(=O)CNC(=O)[C@H](CCC(N)=O)NC(=O)C(C)(C)NC(=O)[C@@H](N)Cc1c[nH]cn1)[C@@H](C)O)[C@@H](C)O)C(C)C)C(=O)N[C@@H](CCC(=O)O)C(=O)NCC(=O)NCC(=O)N1CCC[C@H]1C(=O)N[C@@H](CO)C(=O)N[C@@H](CO)C(=O)NCC(=O)N[C@@H](C)C(=O)N1CCC[C@H]1C(=O)N1CCC[C@H]1C(=O)N1CCC[C@H]1C(=O)N[C@@H](CO)C(=O)N[C@@H](CS)C(=O)O` [compound 77, HAibQGT FTSDKSWYLDGPWAGDFVLWLIEGGPSSGAPPPSC] (H-H[Aib]QGTFTSDKSWYLDGPWAGDFVLWLIEGGPSSGAPPPSC-OH; N-terminus and C-terminus assumed), the half-life [1] was 1.54 h, the “PK parameter values (half-life and AUCinf/dose), comparison in words” value [2] was “significantly low” and the “AUCinf/dose” value ([2]; 100 nmol/kg) was 156.76 ± 27.16 kg·h/L. It also gave a half-life ([2]; 100 nmol/kg) of 7.11 ± 0.4 h, a half-life [3] of 0.657 h and a half-life ([3]; FaSSIF/P) of 0.615 h.

In the case of `CSCC[C@H](NC(=O)[C@H](CCCCNC(=O)CCCC[C@@H]1SC[C@@H]2NC(=O)N[C@@H]21)NC(=O)[C@H](Cc1ccc(O)cc1)NC(=O)[C@H](CC(=O)O)NC(=O)[C@H](CC(C)C)NC(=O)[C@H](CC(C)C)NC(=O)[C@H](CCCCNC(=O)COCCOCCNC(=O)COCCOCCNC(=O)CC[C@H](NC(=O)CCCCCCCCCCCCCCCCC(=O)O)C(=O)O)NC(=O)[C@H](CO)NC(=O)[C@H](Cc1ccc(O)cc1)NC(=O)[C@H](CC(=O)O)NC(=O)[C@H](CO)NC(=O)[C@@H](NC(=O)[C@H](Cc1ccccc1)NC(=O)[C@@H](NC(=O)CNC(=O)[C@H](CCC(N)=O)NC(=O)C(C)(C)NC(=O)[C@@H](N)Cc1ccc(O)cc1)[C@@H](C)O)[C@@H](C)O)C(=O)N[C@@H](CCC(N)=O)C(=O)N[C@@H](CCCNC(=N)N)C(=O)N[C@@H](CC(=O)O)C(=O)N[C@@H](Cc1ccccc1)C(=O)N[C@H](C(=O)N[C@@H](CCC(N)=O)C(=O)N[C@@H](Cc1c[nH]c2ccccc12)C(=O)N[C@@H](CC(C)C)C(=O)N[C@@H](CC(C)C)C(=O)N[C@@H](CCC(=O)O)C(=O)NCC(=O)NCC(=O)N1CCC[C@H]1C(=O)N[C@@H](CO)C(=O)N[C@@H](CO)C(=O)NCC(=O)N[C@@H](C)C(=O)N1CCC[C@H]1C(=O)N1CCC[C@H]1C(=O)N1CCC[C@H]1C(=O)N[C@@H](CO)C(N)=O)C(C)C` [compound 87] (H-Y[Aib]QGTFTSDYSK([AEEA-AEEA-γGlu-C18 diacid])LLDYK(Biotin)MQRDFVQWLLEGGPSSGAPPPS-NH2; N-terminus and C-terminus assumed), the “Ratio vs. GLP-1R, GIPR” value (human GIPR) is reported as 281, the “Relative % to native ligand, GIPR” value (human GIPR) is reported as 308% and the “Ratio vs. GLP-1R, GCGR” value (human GCGR) is reported as 60. The “Relative % to native ligand, GCGR” value (human GCGR) was 66%, the “body weight loss effect compared to SEQ ID NO. 77, in words” value [4] was “inferior” and the half-life [3] was 0.273 h. For the same compound, the “Ratio vs. GLP-1R, GLP-1R” value (human GLP-1R) was 100, the “Relative % to native ligand, GLP-1R” value (human GLP-1R) was 110% and the AUC(0-inf) [5] was 1860 ng·h/mL. For the same compound, the Cmax [5] was 290 ng/mL, the half-life [5] was 6.17 h and the “time at which Cmax was reached” value [5] was 0.25 h.
